# Source: article PMC10388305, “Synthesis and Evaluation of a Monomethyl Auristatin E—Integrin αvβ6 Binding Peptide–Drug Conjugate for Tumor Targeted Drug Delivery” (Journal of Medicinal Chemistry, 2023)
# Square brackets hold non-standard residues; d marks the D form. Peptide text beside a SMILES is read from it. * marks the point of attachment. Dolaproine = CO[C@@H]([C@@H]1CCCN1)[C@@H](C)C(=O)O; Dil = CC[C@H](C)[C@H](NC)[C@@H](CC(=O)O)OC; X1 = C[C@@H](N*)[C@@H](O)c1ccccc1; NMeV = CN[C@H](C(=O)O)C(C)C
# Tests used:
# [1] = system: MIA PaCa-2 (−) cells; assay: Caspase-3/7 activity assay (ApoTox-Glo), MIA PaCa-2; type: cell-based; details: 250 nM (MMAE 10 nM, staurosporine 100 nM), 24, 48, 72 h
# Experimental: (§1) Caspase-3/7 activity was analyzed using an ApoTox-Glo Triplex Assay kit. Cells were seeded in a 96 well plate at the same density and using the same respective media as described for the WST-1 assay and incubated overnight (37 °C, 5% CO2). DX3puroβ6 and DX3puro cells were treated with 1 nM of MMAE (free, non-targeted drug) or 0.625 nM of the other compounds: NH2-2, [^natCu]2, NH2-PDC-1, or [^natCu]PDC-1. BxPC-3 and MIA PaCa-2 cells were treated with 10 nM of MMAE or 250 nM of the other compounds: NH2-2, [^natCu]2, NH2-PDC-1, or [^natCu]PDC-1. All cells were treated with 100 nM of staurosporine as a positive control.[24] Untreated cells (media) were used as a measure of endogenous caspase-3/7 activity (normalized to 1). Cells were treated (n = 4/cell line/compound/time) for 24, 48, or 72 h (37 °C, 5% CO2) prior to washing. After treatment, the media was removed, cells were washed, and Caspase-Glo 3/7 reagent was added, and incubated for 1 h at room temperature. Caspase-3/7 activity was analyzed by measuring luminescence with a Fluoroskan FL microplate reader according to the manufacturer’s protocol.
# [2] = system: DX3puroβ6 (+) cells; assay: Caspase-3/7 activity assay (ApoTox-Glo), DX3puroβ6; type: cell-based; details: DX3puroβ6 (+); 0.625 nM (MMAE 1 nM, staurosporine 100 nM); 24, 48, 72 h
# Experimental: as §1
# [3] = system: BxPC-3 (+) cells; assay: WST-1 cell viability assay, BxPC-3; type: cell-based; details: 48 h treatment + 24 h media, mean ± SD
# Experimental: (§2) Peptides NH2-2 and [^natCu]2 were not toxic to any cells (Figure 3, gray and black, respectively).
# (§3) Cell viability was measured after treatment with either NH2-2, [^natCu]2, MMAE (free, non-targeted drug), NH2-PDC-1, or [^natCu]PDC-1 in DX3puroβ6 (+) and DX3puro (−) cells at variable concentrations up to 5 nM, and in BxPC-3 (+) and MIA PaCa-2 (−) cells at variable concentrations up to 250 nM, or with MMAE at concentrations up to 10 nM. Cells were seeded in a 96 well plate at a density of 6000 cells/well for DX3puroβ6 and DX3puro, and at a density of 10,000 cells/well for BxPC-3 and MIA PaCa-2. DMEM media was used for all cells except for BxPC-3 (RPMI 1640 media). Cells (n = 6–8 wells/cell type/compound) were treated with different concentrations of NH2-2, [^natCu]2, MMAE, NH2-PDC-1, or [^natCu]PDC-1 dissolved in the respective media, as well as their respective media (no treatment) for 48 h (37 °C, 5% CO2), after which the media was removed; cells were washed twice with media (200 μL) and re-incubated in media (37 °C, 5% CO2) for 24 h. The media was then removed and the WST-1 reagent was added to each well, and the cells were incubated for 2 h at 37 °C. The 96 well plates were read at 450 nm by a Multiscan Ascent microplate reader. The percent cell viability was normalized to untreated cells (set as 100% viability) for each cell line.
# [4] = system: DX3puro (−) cells; assay: WST-1 cell viability assay, DX3puro; type: cell-based; details: 48 h treatment + 24 h media, up to 5 nM, mean ± SD
# Experimental: as §2, §3
# [5] = system: DX3puro (−) cells; assay: Caspase-3/7 activity assay (ApoTox-Glo), DX3puro; type: cell-based; details: 0.625 nM (MMAE 1 nM, staurosporine 100 nM), 24, 48, 72 h
# Experimental: as §1
# [6] = system: DX3puroβ6 (+) cells; assay: WST-1 cell viability assay, DX3puroβ6; type: cell-based; details: DX3puroβ6 (+); 48 h treatment + 24 h media; mean ± SD
# Experimental: as §2, §3
# [7] = system: MIA PaCa-2 (−) cells; assay: WST-1 cell viability assay, MIA PaCa-2; type: cell-based; details: MIA PaCa-2 (−); 48 h treatment + 24 h media; up to 250 nM (MMAE up to 10 nM); mean ± SD
# Experimental: as §2, §3
# [8] = system: DX3puroβ6 (+) and DX3puro (−) tumors; assay: Therapy study, control groups (half DX3puroβ6 (+), half DX3puro (−) tumors); type: in vivo, mice
# Source text: Mice treated with [^natCu]PDC-1 had slower tumor growth compared to the groups receiving saline, non-drug bearing peptide [^natCu]2, or free, non-targeted MMAE (Figure 7). […] All mice in the groups treated with saline, non-drug bearing peptide [^natCu]2, or free, non-targeted MMAE had met an end point criterion (≥2 cm in any direction and/or tumor ulceration) by 56 days, 70 days, and 64 days from start of treatment, respectively, with all these groups having the same median survival of 37 days (Figure 7B).
# Figure 7 (A) Average tumor volume over time. (B) Kaplan–Meier survival plot.
# Tumor xenografts were established by subcutaneous injection of either DX3puroβ6 or DX3puro cells (3 × 10^6 cells in 100 μL serum-free DMEM/animal) into the flank. The tumors were allowed to grow for 19 days before the start of treatment (day 0). […] Tumor volumes and body weights (to assess possible systemic toxicity) were measured starting on day 0, and once a week thereafter until the end of the study. Tumor volume (V) was determined according to the equation V = (π/6) × L × W × H, where L is the longest axis, W is the axis perpendicular to L, and H is perpendicular to the plane of L and W. End point determination criteria were: any axis >2 cm, active ulceration, or compromised health of the mouse (>20% loss of body weight from the start of the study). […] Survival curves were determined by Kaplan–Meier method.
# [9] = system: BxPC-3 (+) cells; assay: Caspase-3/7 activity assay (ApoTox-Glo), BxPC-3; type: cell-based; details: 250 nM (MMAE 10 nM, staurosporine 100 nM), 24, 48, 72 h
# Experimental: as §1
# [10] = cited from earlier work
# Experimental: Tumor xenografts were established by subcutaneous injection of either DX3puroβ6 or DX3puro cells (3 × 10^6 cells in 100 μL serum-free DMEM/animal) into the flank. The tumors were allowed to grow for 19 days before the start of treatment (day 0). Mice were treated with either (1) saline, (2) peptide ([^natCu]2), 6 mg/kg, 1.12 μmol/kg), (3) non-targeted drug (MMAE, 0.3 mg/kg, 0.42 μmol/kg), or (4) PDC ([^natCu]PDC-1, 6 mg/kg, 0.88 μmol/kg). Dosing of MMAE was 0.3 mg/kg as per maximum dose with no physiological response.[25] The [^natCu]PDC-1 treatment groups consisted of n = 10/tumor model, whil ...
smiles,measurement,setting,value
"CC[C@H](C)[C@@H]([C@@H](CC(=O)N1CCC[C@H]1[C@H](OC)[C@@H](C)C(=O)N[C@H](C)[C@@H](O)c1ccccc1)OC)N(C)C(=O)[C@@H](NC(=O)[C@@H](NC)C(C)C)C(C)C [MMAE, monomethyl auristatin E] (H-[NMeV]V[Dil][Dolaproine]-X1)",Caspase-3/7 activity (in words),[1],increased caspase-3/7 activity
same,Caspase-3/7 activity (in words),[2],increased caspase-3/7 activity
same,EC50,[3],0.5 ± 0.03 nM
same,EC50,[4],0.14 ± 0.03 nM
same,Caspase-3/7 activity (in words),[5],increased caspase-3/7 activity
same,EC50,[6],0.15 ± 0.02 nM
same,EC50,[7],0.16 ± 0.01 nM
same,Median survival,"[8]; [natCu]2 6 mg/kg, MMAE 0.3 mg/kg i.v. on days 0, 3, 6, 9, n = 8/group",37 days
same,Time by which all mice had met an end point criterion,[8]; from start of treatment,≤ 64 days
same,Caspase-3/7 activity (in words),[9],increased caspase-3/7 activity
same,Maximum dose with no physiological response,[10],0.3 mg/kg
